Assays:
[1] = tested on: D. melanogaster control strains (CONTROL 1, CONTROL 2); experiment: Topical application bioassay on adult females, control strains; assay type: in vivo, Drosophila melanogaster; conditions: 50 ppm topical application, by 5 hours, 3 independent experiments
Experimental: (§1) For testing on adults by topical application of compounds, a method has been adapted from Dapkus (Drosophila Information Newsletter, Volume 1, January 1991; http://jfly.iam.u-tokyo.ac.jp/html/din/DIN_Vol_01—9101.txt). 0-3 day old adult D. melanogaster females are anaesthetised using CO2, and 0.4 uL of compound dissolved in acetone is applied to the abdomens of these females using a Hamilton pipette. After compound application, the flies are cultured under normal conditions for the required time intervals, and either visually assessed (as in Example 6.2) or harvested for chemical analysis (Example 7). Ideally the experiment is repeated on 3 separate ocassions
(§2) The effects of the compounds on the whole insects (larvae and adults) are monitored by visual assessment, daily or at a frequency as required. In one type of assessment, the mortality of the insects over time is scored. For example, if the adult test is used, the insects are monitored at time points that have been determined previously to be suitable for the experiment. The number of dead flies at each time point is scored.
(§3) Bioassays are carried out as described above. In one example, the insecticide Malathion was applied to 20 females at a dose of 50 ppm per time point to be assessed, according to the topical application method described above. […]

[2] = tested on: D. melanogaster MUTANT strain (dhr96_hairpin / GAL4-arm, reduced dhr96 expression); experiment: Topical application bioassay on adult females, dhr96 knockdown mutant strain; assay type: in vivo, Drosophila melanogaster; conditions: 50 ppm topical application, at 5 hours, 3 independent experiments
Experimental: as §1, §2, §3

CCOC(=O)CC(SP(=S)(OC)OC)C(=O)OCC (centres unmarked) [Malathion]
percentage mortality [1]: ≥ 95%
mortality [2]: no or significantly reduced mortality

From patent US20090031433A1, “METHODS FOR SCREENING INSECTICIDES” (priority 2004, published 2009)
